Assays:
[1] = tested on: Na+ channel site 2 binding site; test: [3H]-BTX assay, rat forebrain membranes; conditions: ± S.E.M., n in brackets
Description: In order to determine if the hermitamides bind to the sodium channel, the natural products, their enantiomers, and the racemic mixture were tested for their ability to displace [^3H]-batrachatoxin. Batrachatoxin is a lipid-soluble neurotoxin that binds to site 2 of the sodium channel. This site is known to overlap with the local anesthetic binding […]. Ligands known to bind to […] of the sodium channel include anesthetics, anticonvulsants and antiarrthymics. As a control, phenyloin, a clinically-used sodium channel blocker that is known to displace [^3H]BTX was also included.
The assays were run at 10 μM and recorded as percent displacement of BTX.
Briefly, rat forebrain membranes (10 mg tissue/well) were incubated with [^3H]-BTX (30-60 Ci/mmol). […] The reaction was terminated by rapid vacuum filtration of the reaction contents onto glass fiber filters. Radioactivity trapped onto the filters was determined and compared with control values to ascertain any interactions of the test compound with the Na^+ channel site 2 binding site. Aconitine (1 μM) was used as a positive control (Sigma Aldrich, Inc., St. Louis, Mo.).

human Nav1.2 = molecular target: T1, human Nav1.2 (Homo sapiens, UniProt Q99250); test: Sodium channel electrophysiology of hermitamides (patch clamp); format: cell-based; conditions: HEK human Nav1.2
T1 construct: host or cells: HEK
Description: To test whether these compounds were functionally active as sodium channel blockers, the effects of the hermitamides were tested on human embryonic kidney cells (HEK) cells stably expressing human Nav1.2 using the […].
Human embryonic kidney cells (HEK) cells stably expressing human Nav1.2 were a kind gift from Dr. H. A. Hartmann (University of Baltimore, Md., USA) and were grown in DMEM/F12 media (Invitrogen, Corp, CA, USA) supplemented with 10% fetal bovine serum, penicillin (100 U/ml), streptomycin (100 μg/ml) and G418 (500 μg/ml; Sigma, Mo., USA). Cells were grown in a humidified atmosphere of 5% CO2 and 95% air at 37° C.
Sodium currents were recorded using the whole-cell configuration of the patch clamp recording technique with an Axopatch 200 amplifier (Axon Instruments, Foster City, Calif.). All voltage protocols were applied using pCLAMP 9 software (Axon, USA) and a Digidata 1322A (Axon, USA). Currents were amplified and low pass filtered (2 kHz) and sampled at 33 kHz. Borosilicate glass pipettes were pulled using a Brown-Flaming puller (model P87, Sutter Instruments Co, Novato, Calif.) and heat polished to produce electrode resistances of […] when filled with the following electrode solution (in mM); CsCl 130, MgCl2 1, MgATP 5, BAPTA 10, HEPES 5 (pH adjusted to 7.4 with CsOH). Cells were plated on glass coverslips and superfused with solution containing the following composition; (in mM) NaCl 130, KCl 4, CaCl2 1, MgCl2 5, HEPES 5, and glucose 5 (pH adjusted to 7.4 with NaOH).
(S)-Hermitamide B was prepared as 100 mM stock solutions in DMSO and diluted to the desired concentration in perfusion solution. The maximum DMSO concentration used was 0.1% and had no effect on current amplitude. All experiments were performed at room temperature (20-22° C.). After establishing whole-cell, a minimum series resistance compensation of 75% was applied. Sodium currents were elicited by a depolarizing step from a holding potential of −100 mV to +10 mV for a duration of 25 ms at 15 s intervals. (S)-Hermitamide B was applied after a 3 min control period and continued until a steady state current amplitude was observed. All data represent percentage mean block±standard error of the mean (S.E.M.).

site 2 of the VGSC = test: [3H]-BTX-B displacement assay at site 2; format: binding, rat; conditions: Screen at 40 μM, 2 replicates, referenced to Aconitine
CWR22rv-1 cells = test: CWR22rv-1 prostate cancer cell death (propidium iodide, FACS); format: cell-based, human; conditions: 25 μM, after 24 h
Description: CWR22Rv1 cells (ATCC, Manassas, Va.) were seeded in 6 well tissue culture plate at density of 300,000 cells/well and maintained in RPMI 1640 (Mediatech, Herndon, Va.) containing 10% fetal bovine serum, 2.5 mM L-glutamine, and penicillin-streptomycin (100 IU/ml and 100 μg/ml, respectively) at 37° C. with 5% CO2. Cells were then switched to serum free RPMI media overnight prior to drug treatment. Compounds were dissolved in 100% dimethylsulfoxide (DMSO) and diluted to the desired concentrations in serum free RPMI. Cells were treated with indicated drug concentrations (in triplicate per treatment point) for 24, 48, 72 hour. After treatment, cells were harvested by trypsinization and fixed in 70% ethanol. The fixed cells were then stained with propidium iodide (50 μg/ml) after treatment with RNase (5 μg/ml). The stained cells were analyzed for DNA content using FACSsort (Becton Dickinson). Cell cycle fractions were quantified with Cell Quest (Becton Dickinson) or ModFit LT (Verity Software House).

T1 sequence (Q99250 whole entry): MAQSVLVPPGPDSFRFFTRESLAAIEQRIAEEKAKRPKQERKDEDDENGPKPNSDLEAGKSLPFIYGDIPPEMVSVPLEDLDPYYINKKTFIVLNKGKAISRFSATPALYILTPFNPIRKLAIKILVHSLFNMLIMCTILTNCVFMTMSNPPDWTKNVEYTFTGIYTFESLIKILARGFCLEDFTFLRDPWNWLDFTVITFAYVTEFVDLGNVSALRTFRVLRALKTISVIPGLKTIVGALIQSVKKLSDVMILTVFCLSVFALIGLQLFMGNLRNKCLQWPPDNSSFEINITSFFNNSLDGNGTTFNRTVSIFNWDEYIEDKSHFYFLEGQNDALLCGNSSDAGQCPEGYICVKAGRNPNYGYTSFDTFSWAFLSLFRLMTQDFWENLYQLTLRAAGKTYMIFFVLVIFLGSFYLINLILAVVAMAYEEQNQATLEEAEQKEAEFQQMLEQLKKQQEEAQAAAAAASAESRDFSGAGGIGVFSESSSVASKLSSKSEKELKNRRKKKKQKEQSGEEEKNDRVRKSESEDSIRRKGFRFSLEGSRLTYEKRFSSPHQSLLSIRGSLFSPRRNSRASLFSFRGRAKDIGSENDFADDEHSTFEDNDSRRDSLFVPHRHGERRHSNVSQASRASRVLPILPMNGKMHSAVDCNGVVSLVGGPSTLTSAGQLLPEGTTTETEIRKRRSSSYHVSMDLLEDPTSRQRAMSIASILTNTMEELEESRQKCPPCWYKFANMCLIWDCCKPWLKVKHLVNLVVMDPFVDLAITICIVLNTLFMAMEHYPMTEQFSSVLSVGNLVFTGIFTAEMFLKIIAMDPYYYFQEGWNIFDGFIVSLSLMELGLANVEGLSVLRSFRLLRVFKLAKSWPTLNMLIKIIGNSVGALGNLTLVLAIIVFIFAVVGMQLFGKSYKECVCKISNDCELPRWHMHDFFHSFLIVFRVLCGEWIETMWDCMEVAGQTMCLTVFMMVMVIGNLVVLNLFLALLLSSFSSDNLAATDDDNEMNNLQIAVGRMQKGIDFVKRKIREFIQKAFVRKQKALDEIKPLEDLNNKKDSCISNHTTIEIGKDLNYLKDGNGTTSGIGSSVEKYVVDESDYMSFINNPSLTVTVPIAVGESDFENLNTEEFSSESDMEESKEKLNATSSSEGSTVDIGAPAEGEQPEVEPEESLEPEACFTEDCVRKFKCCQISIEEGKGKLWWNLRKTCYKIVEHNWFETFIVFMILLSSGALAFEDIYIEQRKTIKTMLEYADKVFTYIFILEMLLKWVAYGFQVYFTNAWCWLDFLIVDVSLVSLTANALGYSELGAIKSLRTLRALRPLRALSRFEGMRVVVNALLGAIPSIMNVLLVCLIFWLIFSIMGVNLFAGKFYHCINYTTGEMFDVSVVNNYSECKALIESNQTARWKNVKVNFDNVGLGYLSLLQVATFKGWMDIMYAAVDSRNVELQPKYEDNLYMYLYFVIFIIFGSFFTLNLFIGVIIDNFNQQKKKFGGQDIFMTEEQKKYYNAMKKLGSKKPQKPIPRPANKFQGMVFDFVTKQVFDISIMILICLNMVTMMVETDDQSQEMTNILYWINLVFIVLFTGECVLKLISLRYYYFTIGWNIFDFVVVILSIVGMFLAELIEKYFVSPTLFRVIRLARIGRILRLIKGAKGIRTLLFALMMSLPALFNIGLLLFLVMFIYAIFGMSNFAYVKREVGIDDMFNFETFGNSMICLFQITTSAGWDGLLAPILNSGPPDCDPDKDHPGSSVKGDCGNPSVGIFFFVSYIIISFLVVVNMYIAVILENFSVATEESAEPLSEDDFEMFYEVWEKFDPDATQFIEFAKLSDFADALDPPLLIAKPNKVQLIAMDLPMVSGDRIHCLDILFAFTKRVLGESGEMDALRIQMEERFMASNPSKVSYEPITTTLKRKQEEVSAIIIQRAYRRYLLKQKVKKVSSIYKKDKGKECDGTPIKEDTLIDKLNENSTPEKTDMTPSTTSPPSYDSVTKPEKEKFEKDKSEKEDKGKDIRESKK

Structure (SMILES) | % [3H]-BTX Displacement At 10 μM [1] | Patch-clamp percentage block, 1 μM (human Nav1.2) | Patch-clamp percentage block, 10 μM (human Nav1.2) | [3H]-BTX-B Binding Data, Displacement % (site 2 of the VGSC) | other results
CCCCCCC[C@H](C/C=C/CCC(=O)NCCc1c[nH]c2ccccc12)OC [(R)-hermitamide B, 2-(1H-indol-3-yl)-ethyl (7R,4E)-Methoxytetradecenamide] | 20.31 ± 5.82 (2) % | 93.6 (1) % | – | – | Patch-clamp percentage block, 100 nM (human Nav1.2): 28.8%
CCCCCCC[C@@H](C/C=C/CCC(=O)NCCc1c[nH]c2ccccc12)OC [(S)-hermitamide B, 2-(1H-indol-3-yl)-ethyl (7S,4E)-Methoxytetradecenamide] | 29.02 ± 0.29 (2) % | 80% | 100 (3) % | – | Patch-clamp percentage block, 1 μM (human Nav1.2; listed as Hermitamide B): ~80%
CCCCCCCC(C/C=C/CCC(=O)O)OC (racemic) [rac-lyngbic acid] | 7.35 ± 2.88 (2) % | – | – | – | Patch-clamp percentage block, 100 μM (human Nav1.2; 100 μM): 55.6%
O=C1NC(=O)C(CCCCCC2CC2)(c2cccc(Cl)c2)N1 (stereo not drawn) [Compound 20] | – | – | – | 8% | –
C#CC(O)(CCCCCCC)c1cccc(Cl)c1 (stereo not drawn) [Compound 12] | – | – | – | 78% | –
CCCCCCC[C@@H](C/C=C/CCC(=O)O)OC [(S)-lyngbic acid, (7S,4E)-Methoxytetradecenoic Acid] | 7.77 ± 2.20 (2) % | – | 44.4 ± 0.3 (4) % | – | –
CCCCCCC[C@@H](C/C=C/CCC(=O)NCCc1ccccc1)OC [(S)-hermitamide A, Phenethyl (7S,4E)-methoxytetradecenamide] | 15.89 ± 3.06 (2) % | ~50% | 94.4 ± 1.3 (4) % | – | –
C=CCCCCCC1(c2cccc(Cl)c2)NC(=O)NC1=O (stereo not drawn) [Compound 16] | – | – | – | 79% | –
C#C/C(=C\CCCCCC)c1cccc(Cl)c1 [Compound 13] | – | – | – | 32% | –
C=CCCCCCC1(c2cccc(Cl)c2)NC(=O)N(Cc2ccccc2)C1=O (stereo not drawn) [Compound 17] | – | – | – | 23% | –
CCCCCCC[C@H](C/C=C/CCC(=O)O)OC [(R)-lyngbic acid, (7R,4E)-Methoxytetradecenoic Acid] | 11.91 ± 0.16 (2) % | 52.5 ± 3.9 (4) % | – | – | Patch-clamp percentage block, 100 nM (human Nav1.2): 11.9%
CCCCCCC[C@@H](C/C=C/CCC(=O)NCCc1c[nH]c2ccccc12)OC (racemic) [rac-hermitamide B] | 36.05 ± 0.77 (2) % | 88.4 ± 2.9 (40% | 100 (1) % | – | Patch-clamp percentage block, 100 nM (human Nav1.2): 24.3%
CCCCCCC[C@](O)(C(N)=O)c1cccc(Cl)c1 [(R)-(−)-2-(3-chloro-phenyl)-2-hydroxy-nonanoic acid amide] | – | – | – | – | cell death of CWR22rv-1 cells (CWR22rv-1 cells): induces cell death
O=C1NC(=O)C(CCCCCC2CO2)(c2cccc(Cl)c2)N1 (stereo not drawn) [Compound 18] | – | – | – | 28% | –
CCCCCCC[C@@H](C/C=C/CCC(=O)NCCc1ccccc1)OC (racemic) [rac-hermitamide A] | 15.71 ± 0.14 (2) % | 49.7 ± 3.8 (4) % | 90.2 ± 2.5 (3) % | – | –
CCCCCCC[C@H](C/C=C/CCC(=O)NCCc1ccccc1)OC [(R)-hermitamide A, Phenethyl (7R,4E)-methoxytetradecenamide] | 13.79 ± 1.28 (2) % | 58.7 ± 1.3 (4) % | – | – | –

Source: US8816095B2, “Na channels, disease, and related assays and compositions” (Georgetown University, priority 2008, dated 2014)
